This note sets out measurements from US20240216357A1 (SICHUAN HUIYU PHARMACEUTICAL CO., LTD., priority 2021, published 2024).

Where a name gives a salt, the structure may show the parent alone. Read-outs that look alike come from different tables or passages of the source. A value given as a limit tells only on which side of the number the result lay.

A short description of data set [1]: Rat PK test (IV and PO). The following applies: for Cl / F: Male SD rats; for F: PO vs IV; for AUC(0-inf) / Cmax / half-life / Vd: male, SD, rat, plasma; for Vd: intravenous.
Data set [2] deals with T1, CYP3A4 (Homo sapiens (Human), UniProt P08684). Description: CYP 450 enzyme inhibition test (mixed human liver microsomes, LC-MS/MS).
T1 sequence (P08684 whole entry): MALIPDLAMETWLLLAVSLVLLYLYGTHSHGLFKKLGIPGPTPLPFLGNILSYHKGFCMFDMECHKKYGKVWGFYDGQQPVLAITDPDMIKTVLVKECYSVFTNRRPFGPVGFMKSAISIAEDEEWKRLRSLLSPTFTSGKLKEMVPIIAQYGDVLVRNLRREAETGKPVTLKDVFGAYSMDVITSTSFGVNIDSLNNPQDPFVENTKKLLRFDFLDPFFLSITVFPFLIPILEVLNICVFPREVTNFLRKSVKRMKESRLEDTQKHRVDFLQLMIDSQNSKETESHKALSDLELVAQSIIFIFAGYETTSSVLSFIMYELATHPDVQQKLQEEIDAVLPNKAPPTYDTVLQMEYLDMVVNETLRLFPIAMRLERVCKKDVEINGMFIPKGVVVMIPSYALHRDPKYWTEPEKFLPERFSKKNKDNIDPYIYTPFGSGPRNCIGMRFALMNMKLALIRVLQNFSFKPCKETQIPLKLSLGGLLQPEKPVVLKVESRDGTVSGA
The nature of data set [3]: Caco-2 permeability test. The following applies: human, Caco-2. A general note: Caco-2 cells form a polarised layer with tight junctions and transporters.
For data set [4], the target named is T2, voltage-gated potassium ion channel hERG (Homo sapiens (Human), UniProt Q12809). Description: hERG inhibition test (manual patch-clamp).
T2 sequence (Q12809 whole entry): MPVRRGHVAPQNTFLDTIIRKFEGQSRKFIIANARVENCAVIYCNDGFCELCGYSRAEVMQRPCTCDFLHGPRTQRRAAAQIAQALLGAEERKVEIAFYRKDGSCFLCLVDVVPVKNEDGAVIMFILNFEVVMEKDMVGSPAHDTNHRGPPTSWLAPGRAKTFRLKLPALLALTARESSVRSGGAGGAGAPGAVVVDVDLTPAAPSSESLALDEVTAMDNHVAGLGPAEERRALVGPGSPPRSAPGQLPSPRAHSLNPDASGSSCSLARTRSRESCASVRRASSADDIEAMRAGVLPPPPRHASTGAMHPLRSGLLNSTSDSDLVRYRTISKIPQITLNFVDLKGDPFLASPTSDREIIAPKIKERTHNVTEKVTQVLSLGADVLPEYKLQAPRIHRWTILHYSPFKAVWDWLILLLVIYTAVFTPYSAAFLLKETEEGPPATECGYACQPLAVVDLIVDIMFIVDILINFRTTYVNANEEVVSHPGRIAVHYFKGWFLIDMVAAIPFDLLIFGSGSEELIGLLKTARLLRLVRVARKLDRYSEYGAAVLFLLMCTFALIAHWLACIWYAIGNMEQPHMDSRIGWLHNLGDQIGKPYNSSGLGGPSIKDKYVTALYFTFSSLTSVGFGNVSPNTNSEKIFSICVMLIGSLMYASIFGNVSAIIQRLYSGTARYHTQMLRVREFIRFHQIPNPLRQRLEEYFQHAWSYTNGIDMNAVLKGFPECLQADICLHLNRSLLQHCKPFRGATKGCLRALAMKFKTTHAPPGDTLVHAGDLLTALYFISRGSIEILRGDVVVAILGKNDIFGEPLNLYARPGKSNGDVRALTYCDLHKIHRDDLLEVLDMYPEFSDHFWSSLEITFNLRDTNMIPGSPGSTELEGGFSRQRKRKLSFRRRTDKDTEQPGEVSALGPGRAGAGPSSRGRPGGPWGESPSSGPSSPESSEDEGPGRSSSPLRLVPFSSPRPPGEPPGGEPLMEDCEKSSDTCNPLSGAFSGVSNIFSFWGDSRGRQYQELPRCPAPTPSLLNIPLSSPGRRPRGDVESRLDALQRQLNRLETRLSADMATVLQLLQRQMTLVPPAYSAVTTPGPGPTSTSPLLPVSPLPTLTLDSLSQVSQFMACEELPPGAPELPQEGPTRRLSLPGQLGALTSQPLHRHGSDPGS
For data set [5], the system named is NCI-H1417 cells. Description: In vitro cell proliferation detection (CellTiter-Glo, 7 days). It counts as cell-based. The following applies: NCI-H1417 cells, 7 days, CellTiter-Glo, read-out: NCI-H1417 proliferation inhibition IC50.
The target of data set [6] is LSD1 (Homo sapiens (Human), UniProt O60341). Description: LSD1 enzyme activity detection (HTRF). It counts as biochemical. The following applies: HTRF, H3K4me1 substrate; read-out: Inhibition of enzymatic activity of LSD1 IC50. (In general: In TR-FRET formats the signal depends on donor and acceptor labels being close together.)
The target of data set [7] is T1, CYP3A4. The following applies: microsomes.
The target in data set [8] is T2, voltage-gated potassium ion channel hERG.
Data set [9] can be described thus: in vitro. Particulars: human, Caco-2.
For data set [10], the system named is Caco-2 cells. Description: Caco-2 permeability test. The following applies: for Mean Papp A to B: Caco-2, A to B; for Mean Papp A to B / Mean Papp B to A: 120 min; for Mean Papp B to A: Caco-2, B to A.
Setting [11] is: read-out: CYP3A4-T IC50, mixed human liver microsomes, NADPH, CYP3A4-T probe substrate.
[12] abbreviates: read-out: hERG IC50, manual patch-clamp.

Turning to `COc1ccc(-c2c(-c3ccc(C#N)c(F)c3)nc(N3CCC(N)CC3)n(C)c2=O)cc1F` [(CC90011), reference compound], in [1], the Cl was found to be 94.5 mL/min/kg; the F is listed as 14.3%; the total exposure AUC(0-inf) (in general, the area under the concentration-time curve extrapolated to infinity) turned out to be 132 ng·h/mL; the Cmax (usually the highest concentration seen after dosing) was 26 ng/mL. In addition, in [1], the half-life (commonly the time needed for the level to fall by half in the phase considered) is 2.32 h and the Vd is 19.1 L/kg. For the same molecule, the IC50 in data set [2] (setting [11]) was greater than 50000 nM. In addition, in [3], the Papp A→B (commonly how fast a substance crosses the layer from the apical side) at 120 min turned out to be 7.26 ×10⁻⁶ cm/s and the Papp B→A (commonly how fast a substance crosses the layer from the basolateral side) at 120 min was 41 ×10⁻⁶ cm/s.
In data set [2], `CS(=O)(=O)N1CCN(C(=O)c2cc(CCN[C@@H]3C[C@H]3c3ccc(F)cc3)nc(-c3ccc(-n4cccn4)cc3)n2)CC1` [Example 12, (2-(4-(1H-pyrazol-1-yl)phenyl)-6-(2-(((1R,2S)-2-(4-fluorophenyl)cyclopropyl)amino)ethyl)pyrimidin-4-yl) (4-(methylsulfonyl)piperazin-1-yl)methanone] showed an IC50 of 5590 nM. Further, in data set [3], the Papp A→B at 120 min turned out to be 5.95 ×10⁻⁶ cm/s; the Papp B→A at 120 min was 6.92 ×10⁻⁶ cm/s; the efflux ratio (in general, a quotient of directional permeabilities that is used to spot active efflux) at 120 min was 1.16. The same molecule displayed an IC50 in data set [4] of 4690 nM.
As for `COc1ccc(-c2c(O)cc(N3CCC(N)CC3)nc2-c2ccc(C#N)c(F)c2)cc1O` [Example 23, 4-(6-(4-aminopiperidin-1-yl)-4-hydroxy-3-(3-hydroxy-4-methoxyphenyl)pyridin-2-yl)-2-fluorobenzonitrile], the IC50 is 0.44 nM in data set [5] (Homo sapiens, 168 h); 54200 nM in [2] (setting [11]); 0.18 ± 0.08 nM in data set [6]; greater than 30000 nM in data set [4] (setting [12]).
Turning to `COc1ccc(-c2cnc(N3CCC(N)CC3)c(C#N)c2-c2ccc(C#N)c(F)c2)cc1O` [Example 66, 2-(4-aminopiperidin-1-yl)-4-(4-cyano-3-fluorophenyl)-5-(3-hydroxy-4-methoxyphenyl)nicotinon itrile hydrochloride], the IC50 in [5] (Homo sapiens, 168 h) came out at 0.2 nM. In [1], this molecule yielded a Cl of 68.2 mL/min/kg, an F of 17.7%, an AUC(0-inf) of 227 ng·h/mL and a peak concentration (Cmax) of 42.5 ng/mL. Moreover, in data set [1], the half-life was 1.96 h and the Vd was found to be 11.3 L/kg. Further, the IC50 in [2] (setting [11]) was 3650 nM. Besides, the IC50 in data set [6] is 0.2 ± 0.1 nM. In addition, the IC50 in data set [4] (setting [12]) is 15500 nM.
As to `CNC1CCN(c2ncc(-c3ccc(OC)c(O)c3)c(-c3ccc(C#N)c(F)c3)c2C#N)CC1` [Example 79, 4-(4-cyano-3-fluorophenyl)-5-(3-hydroxy-4-methoxyphenyl)-2-(4-(methylamino)piperidin-1-yl) nicotinonitrile hydrochloride], the IC50 in data set [5] (Homo sapiens, 168 h) was 0.272 nM; in [2] (setting [11]) it was greater than 10000 nM; in [6], 0.3 ± 0.1 nM; in [4] (setting [12]), 4380 nM.
The matching figures for `COc1ccc(-c2cnc(N3CCC(C)(N)CC3)c(C#N)c2-c2ccc(C#N)c(F)c2)cc1O` [Example 80, 2-(4-amino-4-methylpiperidin-1-yl)-4-(4-cyano-3-fluorophenyl)-5-(3-hydroxy-4-methoxyphenyl) )nicotinonitrile hydrochloride]: 1.22 nM, greater than 10000 nM, 1 ± 0.4 nM and 9330 nM.
In the case of `COc1ccc(-c2c(OC)cc(N3CCC(N)CC3)nc2-c2ccc(C#N)c(F)c2)cc1F` [Example 87, 4-(6-(4-aminopiperidin-1-yl)-3-(3-fluoro-4-methoxyphenyl)-4-methoxypyridin-2-yl)-2-fluoroben zonitrile], in data set [5] (Homo sapiens, 168 h), the IC50 was determined as 3.29 nM. In data set [2] (setting [11]), the IC50 stood at 6740 nM. Moreover, in data set [3], the Papp A→B at 120 min amounted to 2.97 ×10⁻⁶ cm/s, the Papp B→A at 120 min worked out at 3.35 ×10⁻⁶ cm/s and the efflux ratio at 120 min came to 1.13. In addition, the IC50 in data set [6] was 2.82 ± 1.49 nM.
Turning to `Cc1noc2cc(-c3c(-c4ccc(C#N)c(F)c4)nc(N4CCC(N)CC4)n4ccnc34)c(F)cc12` [Example 125, 4-(5-(4-aminopiperidin-1-yl)-8-(5-fluoro-3-methylbenzo[d]isoxazol-6-yl)imidazolo[1,2-c]pyrimidin-7-yl)-2-fluorobenzonitrile], in [5] (Homo sapiens, 168 h), the IC50 was 0.386 nM. Moreover, in data set [1], the Cl worked out at 60.6 mL/min/kg, the F turned out to be 21.8%, the area under the curve AUC(0-inf) amounted to 323 ng·h/mL and the highest level (Cmax) was 65 ng/mL. Also, in [1], the half-life is 2.58 h and the Vd was determined as 14.7 L/kg. In data set [2] (setting [11]), the IC50 turned out to be 49900 nM. Also, in data set [3], the apical-to-basolateral permeability (Papp A→B) at 120 min came to 4.27 ×10⁻⁶ cm/s, the Papp B→A at 120 min amounted to 25 ×10⁻⁶ cm/s and the efflux ratio at 120 min came out at 5.84. The IC50 in [6] is 0.35 ± 0.09 nM. Besides, the IC50 in data set [4] (setting [12]) amounted to 9520 nM.
With `N#Cc1ccc(-c2nc(N3CCC(N)CC3)n3ccnc3c2-c2ccc(N3CCOCC3)cc2)cc1F` [Example 128, 4-(5-(4-aminopiperidin-1-yl)-8-(4-morpholinophenyl)imidazolo [1,2-c]pyrimidin-7-yl)-2-fluorobenzonitrile], the IC50 was 6.46 nM in data set [5] (Homo sapiens, 168 h); greater than 50000 nM in data set [2] (setting [11]); 4.19 ± 0.11 nM in data set [6]; 13700 nM in data set [4] (setting [12]).
Regarding `COc1ccc(-c2c(-c3ccc(C#N)c(F)c3)nc(N3C4CCC3CC(N)C4)n3ccnc23)cc1O` (stereo not shown) [Example 155, 4-(5-(3-amino-8-azadicyclo[3.2.1]octane-8-yl)-8-(3-hydroxy-4-methoxyphenyl)imidazolo[1,2-c]pyrimidin-7-yl)-2-fluorobenzonitrile hydrochloride], the IC50 in [5] (Homo sapiens, 168 h) turned out to be 0.352 nM; in data set [7], 18000 nM; in data set [6] it was 0.2 ± 0.1 nM.
Take `N#Cc1ccc(-c2nc(N3C4CCC3CC(N)C4)n3ccnc3c2-c2cc3c(cc2F)OCO3)cc1F` (stereo not shown) [Example 175, 4-(5-(3-amino-8-azabicyclo[3.2.1]octane-8-yl)-8-(6-fluorobenzo[d] [1,3]dioxane-5- -yl)imidazolo [1,2-c]pyrimidin-7-yl)-2-fluorobenzonitrile hydrochloride]: the IC50 is 4.13 nM in [5] (Homo sapiens, 168 h); 8080 nM in data set [7]; 3.2 ± 2.1 nM in [6].
As to `N#CCn1ncc2cc(F)c(-c3sc(C(=O)N4C5CCC4CC(N)C5)cc3-c3ccc(C#N)c(F)c3)cc21` (stereo not shown) [Example 215, 4-(5-(3-amino-8-azabicyclo [3.2.1]octan-8-carbonyl)-2-(1-(cyanomethyl)-5-fluoro-1H-indazol-6-yl)thiophen-3-yl)-2-fluoro-benzonitrile], the IC50 is 4.19 nM in data set [5] (Homo sapiens, 168 h); 11400 nM in [8]; 0.45 ± 0.05 nM in data set [6].
For the molecule `Cc1noc2cc(-c3sc(C(=O)N4C5CCC4CC(N)C5)nc3-c3ccc(C#N)c(F)c3)c(F)cc12` (stereo not shown) [Example 220, 4-(2-(3-amino-8-azabicyclo[3.2.1]octane-8-carbonyl)-5-(5-fluoro-3-methylbenzo[d]isoxazol-6-yl)thiazol-4-yl)-2-fluorobenzonitrile hydrochloride], in [5] (Homo sapiens, 168 h), the IC50 was determined as 1.32 nM. Also, in data set [9], the Papp A→B at 120 min turned out to be 2.3 ×10⁻⁶ cm/s, the apparent permeability from basolateral to apical (Papp B→A) at 120 min worked out at 6.21 ×10⁻⁶ cm/s and the efflux ratio at 120 min came out at 2.7. Besides, the IC50 in [6] is 0.42 ± 0.06 nM.
In the case of `COc1ccc(-c2nc(CN[C@@H]3C[C@H]3c3ccc(F)cc3)cc(C(=O)N3CCN(S(C)(=O)=O)CC3)n2)cc1O` [Example 224], the IC50 in [5] (Homo sapiens, 168 h) came out at 11.6 nM; in [2] (setting [11]), 5540 nM; in data set [6] it was 25.7 nM; in data set [4] (setting [12]), 5600 nM.
The like results for `CS(=O)(=O)N1CCN(C(=O)c2cc(CN[C@@H]3C[C@H]3c3ccc(F)cc3)nc(-c3ccc(N4CCOCC4)cc3)n2)CC1` [Example 227] were, in that order, 3.91 nM, 14100 nM, 42.6 nM and 6290 nM.
For `CS(=O)(=O)N1CCN(C(=O)c2cc(CCCN[C@@H]3C[C@H]3c3ccc(F)cc3)nc(-c3ccc(-n4cccn4)cc3)n2)CC1` [Example 257, (2-(4-(1H-pyrazol-1-yl)phenyl)-6-(3-((1R,2S)-2-(4-fluorophenyl)cyclopropyl)amino)pyrimidin-4-yl)(4-(methylsulfonyl)piperazin-1-yl)methanone], in data set [10], the “Mean Papp A to B” value is given as 1.54 10^−6 cm/s and the “Mean Papp B to A” value was 4.55 10^−6 cm/s. Further, the IC50 in [4] (setting [12]) worked out at 2830 nM.
For the molecule `CS(=O)(=O)N1CCN(c2cc(CCCN[C@@H]3C[C@H]3c3ccc(F)cc3)nc(-c3ccc(C#N)cc3)n2)CC1` [Example 261, 4-(4-(3-(1R,2S)-2-(4-fluorophenyl)cyclopropyl)amino)-6-(4-(methylsulfonyl)piperazin-1-yl)pyri midin-2-yl)benzonitrile formate], the IC50 in data set [5] is 3.22 nM. Besides, the “Efflux Ratio” value in data set [10] (Caco-2) is reported as 1.38. In [10], the “Mean Papp A to B” value is 0.49 10^−6 cm/s and the “Mean Papp B to A” value is reported as 0.67 10^−6 cm/s.
